Reference: BindingDB's records for doi:10.1021/bi00331a002 (University of Minnesota, 1985)

Target: Glutamate receptor ionotropic, NMDA 1 (Rattus norvegicus, UniProt P35439)

## CC(C[C@H](N)C(=O)O)P(=O)(O)O (stereo partly drawn) [gamma-methyl-APB]
  Ki: 8.6 µM

## N[C@H](CCP(=O)(O)O)C(=O)O [D-AP4]
  Ki: > 10 µM

## CP(=O)(O)CCC(N)C(=O)O (stereo not drawn) [2-amino-4-(methylphosphino) butanoic acid]
  Ki: 3.8 µM

## N[C@H](CCCP(=O)(O)O)C(=O)O [CB3371309]
  Ki: > 10 µM

## N[C@@H](CC(=O)O)C(=O)O [L-Aspartic acid, 2]
  Ki: 8 µM

## N[C@H](CC(=O)O)C(=O)O
  Ki: > 10 µM

## N[C@@H](Cn1oc(=O)[nH]c1=O)C(=O)O [2-amino-3-(3,5-dioxo[1,2,4]oxadiazolidin-2-yl)propionic acid]
  Ki: 0.26 µM

## N[C@@H](CCP(=O)(O)O)C(=O)O [2-Amino-4-phosphono-butyric acid]
  Ki: 1.5 µM
